From US9096500B2, “Acyl sulfonamide compounds” (Pfizer Limited, priority 2010, dated 2015)
Counter-ions that a name gives are not always drawn.

Target: T1, Nav1.7 (or SCN9A) channel (Homo sapiens, UniProt Q15858)
T1 construct: expressed in transfected cells
Test: Nav1.7 (hSCN9A) electrophysiology assay, PatchXpress platform
Type: cell-based
Details: estimated IC50 from single point electrophysiology data, HEK cells stably expressing hSCN9A, held at V1/2 of inactivation, read-out: Nav1.7 EIC50
Procedure: The ability of the compounds of formula (I) to block the Nav1.7 (or SCN9A) channel were measured using the assay described below.
Human Embryonic Kidney (HEK) cells were transfected with an hSCN9A construct using lipofectamine reagent (Invitrogen), using standard techniques. Cells stably expressing the hSCN9A constructs were identified by their resistance to G-418 (400 μg/ml). Clones were screened for expression using the whole-cell voltage-clamp technique.
HEK cells stably transfected with hSCN9A were maintained in DMEM medium supplemented with 10% heat-inactivated fetal bovine serum and 400 μg/ml G-418 in an incubator at 37° C. with a humidified atmosphere of 10% CO2. For HTS, cells were harvested from flasks by trypsinization and replated in an appropriate multi-well plate (typically 96 or 384 wells/plate) such that confluence would be achieved within 24 hours of plating. For electrophysiological studies, cells were removed from the culture flask by brief trypsinization and re-plated at low density onto glass cover slips. Cells were typically used for electrophysiological experiments within 24 to 72 hours after plating.
Cover slips containing HEK cells expressing hSCN9A were placed in a bath on the stage of an inverted microscope and perfused (approximately 1 ml/minutes) with extracellular solution of the following composition: 138 mM NaCl, 2 mM CaCl2, 5.4 mM KCl, 1 mM MgCl2, 10 mM glucose, and 10 mM HEPES, pH 7.4, with NaOH. […] The osmolarity of the extracellular and intracellular solutions was 300 mOsm/kg and 295 mOsm/kg, respectively. All recordings were made at room temperature (22-24° C.) using AXOPATCH 200B amplifiers and PCLAMP software (Axon Instruments, Burlingame, Calif.).
hSCN9A currents in HEK cells were measured using the whole-cell configuration of the patch-clamp technique (Hamill et al., 1981). Uncompensated series resistance was typically 2 to 5 mega ohms and >85% series resistance compensation was routinely achieved. […] Current records were acquired at 20 to 50 KHz and filtered at 5 to 10 KHz.
HEK cells stably transfected with hSCN9A were viewed under Hoffman contrast optics and placed in front of an array of flow pipes emitting either control or compound-containing extracellular solutions. All compounds were dissolved in dimethyl sulfoxide to make 10 mM stock solutions, which were then diluted into extracellular solution to attain the final concentrations desired. […] The voltage-dependence of inactivation was determined by applying a series of depolarizing prepulses (8 sec long in 10 mV increments) from a negative holding potential. The voltage was then immediately stepped to 0 mV to assess the magnitude of the sodium current. Currents elicited at 0 mV were plotted as a function of prepulse potential to allow estimation of the voltage at which 50% of the channels were inactivated (midpoint of inactivation or V1/2). Compounds were tested for their ability to inhibit hSCN9A sodium channels by activating the channel with a 20 msec voltage step to 0 mV following an 8 second conditioning prepulse to the empirically determined V1/2. Compound effect (% inhibition) was determined by difference in current amplitude before and after application of test compounds. […] Inhibition values <20% and >80% were excluded from the calculation.
Electrophysiological assays were conducted with PatchXpress 7000 hardware and associated software (Molecular Devices Corp). All assay buffers and solutions were identical to those used in conventional whole-cell voltage clamp experiments described above. hSCN9A cells were grown as above to 50%-80% confluency and harvested by trypsinization. Trypsinized cells were washed and resuspended in extracellular buffer at a concentration of 1×10^6 cells/ml. The onboard liquid handling facility of the PatchXpress was used for dispensing cells and application of test compounds.

T1 sequence (Q15858 whole entry): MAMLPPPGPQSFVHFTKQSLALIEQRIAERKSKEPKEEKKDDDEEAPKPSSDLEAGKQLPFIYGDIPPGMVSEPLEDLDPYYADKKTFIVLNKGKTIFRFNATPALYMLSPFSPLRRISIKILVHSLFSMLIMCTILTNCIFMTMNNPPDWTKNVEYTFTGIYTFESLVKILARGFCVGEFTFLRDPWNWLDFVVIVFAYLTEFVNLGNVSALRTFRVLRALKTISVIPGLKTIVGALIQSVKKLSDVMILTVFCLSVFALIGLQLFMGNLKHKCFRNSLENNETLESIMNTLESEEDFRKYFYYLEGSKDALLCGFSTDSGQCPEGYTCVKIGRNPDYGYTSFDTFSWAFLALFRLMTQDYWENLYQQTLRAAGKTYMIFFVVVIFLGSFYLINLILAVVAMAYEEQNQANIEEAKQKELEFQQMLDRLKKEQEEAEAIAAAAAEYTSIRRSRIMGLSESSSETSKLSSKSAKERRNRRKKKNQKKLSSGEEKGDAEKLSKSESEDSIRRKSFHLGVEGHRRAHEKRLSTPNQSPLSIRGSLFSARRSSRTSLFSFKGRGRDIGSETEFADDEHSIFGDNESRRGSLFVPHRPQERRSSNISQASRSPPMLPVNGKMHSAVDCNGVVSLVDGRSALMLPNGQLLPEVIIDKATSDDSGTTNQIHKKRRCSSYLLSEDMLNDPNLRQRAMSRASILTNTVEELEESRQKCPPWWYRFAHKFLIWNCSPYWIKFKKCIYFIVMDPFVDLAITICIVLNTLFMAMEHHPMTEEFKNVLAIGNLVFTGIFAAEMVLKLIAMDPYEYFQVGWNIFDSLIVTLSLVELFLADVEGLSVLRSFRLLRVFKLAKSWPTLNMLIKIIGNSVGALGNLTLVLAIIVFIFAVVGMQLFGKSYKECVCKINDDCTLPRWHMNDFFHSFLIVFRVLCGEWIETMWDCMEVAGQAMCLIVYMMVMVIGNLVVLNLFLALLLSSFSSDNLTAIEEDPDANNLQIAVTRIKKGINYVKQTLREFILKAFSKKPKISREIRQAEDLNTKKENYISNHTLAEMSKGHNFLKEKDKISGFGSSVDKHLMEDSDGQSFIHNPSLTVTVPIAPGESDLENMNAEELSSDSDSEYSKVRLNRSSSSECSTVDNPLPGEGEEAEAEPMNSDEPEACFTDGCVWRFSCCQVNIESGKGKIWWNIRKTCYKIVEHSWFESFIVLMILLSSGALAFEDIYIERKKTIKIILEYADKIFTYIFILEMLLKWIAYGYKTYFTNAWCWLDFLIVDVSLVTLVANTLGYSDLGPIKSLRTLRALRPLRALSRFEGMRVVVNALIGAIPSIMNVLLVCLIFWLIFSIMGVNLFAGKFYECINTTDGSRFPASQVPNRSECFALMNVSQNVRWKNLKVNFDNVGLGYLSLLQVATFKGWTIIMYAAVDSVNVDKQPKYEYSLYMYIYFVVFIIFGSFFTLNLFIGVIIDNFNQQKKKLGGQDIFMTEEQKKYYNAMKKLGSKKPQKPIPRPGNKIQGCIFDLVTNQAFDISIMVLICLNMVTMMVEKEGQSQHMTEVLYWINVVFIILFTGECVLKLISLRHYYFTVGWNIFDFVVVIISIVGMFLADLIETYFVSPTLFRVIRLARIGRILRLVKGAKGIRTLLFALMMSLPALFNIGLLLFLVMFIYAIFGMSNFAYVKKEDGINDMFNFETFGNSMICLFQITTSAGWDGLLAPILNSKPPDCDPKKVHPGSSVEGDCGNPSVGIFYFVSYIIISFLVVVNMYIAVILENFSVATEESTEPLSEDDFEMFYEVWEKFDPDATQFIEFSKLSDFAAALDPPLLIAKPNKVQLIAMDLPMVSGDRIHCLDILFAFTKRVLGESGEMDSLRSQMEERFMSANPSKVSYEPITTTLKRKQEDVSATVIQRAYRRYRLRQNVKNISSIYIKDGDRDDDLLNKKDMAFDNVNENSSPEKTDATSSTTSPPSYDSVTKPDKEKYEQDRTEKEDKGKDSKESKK

Row | Compound | IC50 [nM]
1 | COc1cc(Cl)ccc1OCc1cc(F)c(C(=O)NS(C)(=O)=O)cc1F [Example 15, 4-((4-Chloro-2-methoxyphenoxy)methyl)-2,5-difluoro-N-(methylsulfonyl)benzamide Diethylamine salt] | 1700
2 | COc1ccc(F)c(COc2ccc(C(=O)NS(C)(=O)=O)cc2)c1 [Example 188, 4-[(2-fluoro-5-methoxybenzyl)oxy]-N-(methylsulfonyl)benzamide] | 2500
3 | CS(=O)(=O)NC(=O)c1cc(F)c(COc2c(F)cccc2F)cc1F [Example 126, 4-[(2,6-difluorophenoxy)methyl]-2,5-difluoro-N-(methylsulfonyl)benzamide] | > 3000
4 | CS(=O)(=O)NC(=O)c1cc(F)c(OCc2cccc(OC(F)F)c2)cc1F [Example 224, 4-{[3-(difluoromethoxy)benzyl]oxy}-2,5-difluoro-N-(methylsulfonyl)benzamide] | > 300
5 | CS(=O)(=O)NC(=O)c1cc(F)c(COc2ccccc2F)cc1F [Example 110, 2,5-difluoro-4-[(2-fluorophenoxy)methyl]-N-(methylsulfonyl)benzamide] | 2200
6 | COc1ccc(OCc2cc(F)c(C(=O)NS(C)(=O)=O)cc2F)cc1F [Example 97, 2,5-difluoro-4-[(3-fluoro-4-methoxyphenoxy)methyl]-N-(methylsulfonyl)benzamide] | 1500
7 | COc1ccc(F)c(COc2cc(F)c(C(=O)NS(C)(=O)=O)cc2F)c1 [Example 205, 2,5-difluoro-4-[(2-fluoro-5-methoxybenzyl)oxy]-N-(methylsulfonyl)benzamide] | > 3000
8 | COc1ccc(OCc2cc(F)c(C(=O)NS(C)(=O)=O)cc2F)c2ccccc12 [Example 160, 2,5-difluoro-4-{[(4-methoxy-1-naphthyl)oxy]methyl}-N-(methylsulfonyl)benzamide] | 760
9 | CS(=O)(=O)NC(=O)c1ccc(OCc2ccc(OC(F)(F)F)cc2)cc1 [Example 181, N-(methylsulfonyl)-4-{[4-(trifluoromethoxy)benzyl]oxy}benzamide] | 570
10 | CS(=O)(=O)NC(=O)c1cc(F)c(OCc2ccc(Cl)cc2)cc1F [Example 225, 4-[(4-chlorobenzyl)oxy]-2,5-difluoro-N-(methylsulfonyl)benzamide] | > 300
11 | CS(=O)(=O)NC(=O)c1cc(F)c(COc2ccc(F)c(F)c2Cl)cc1F [Example 129, 4-[(2-chloro-3,4-difluorophenoxy)methyl]-2,5-difluoro-N-(methylsulfonyl)benzamide] | 1900
12 | CS(=O)(=O)NC(=O)c1ccc(OCc2cccc(Cl)c2)c(C#N)c1 [Example 74, 4-[(3-chlorobenzyl)oxy]-3-cyano-N-(methylsulfonyl)benzamide] | 9700
13 | CC(C)Oc1ccc(F)cc1OCc1cc(F)c(C(=O)NS(C)(=O)=O)cc1F [Example 143, 2,5-difluoro-4-[(5-fluoro-2-isopropoxyphenoxy)methyl]-N-(methylsulfonyl)benzamide] | 9700
14 | CCc1ccc(OCc2ccc(C(=O)NS(C)(=O)=O)c(F)c2)cc1 [Example 40, 4-[(4-Ethylphenoxy)methyl]-2-fluoro-N-(methylsulfonyl)benzamide diethylamine salt] | 560
15 | CS(=O)(=O)NC(=O)c1cc(F)c(COc2cc(C(F)(F)F)ccc2F)cc1F [Example 123, 2,5-difluoro-4-{[2-fluoro-5-(trifluoromethyl)phenoxy]methyl}-N-(methylsulfonyl)benzamide] | 850
16 | COc1cc(COc2cc(F)c(C(=O)NS(C)(=O)=O)cc2F)ccc1Cl [Example 66, 4-(4-Chloro-3-methoxybenzyloxy)-2,5-difluoro-N-(methylsulfonyl)benzamide] | > 1000
17 | CS(=O)(=O)NC(=O)c1ccc(COc2ccc(Cl)cc2Cl)cc1 [Example 24, 4-((2,4-Dichlorophenoxy)methyl)-N-(methylsulfonyl)benzamide Diethylamine salt] | 780

Row | Compound | IC50 [nM]
18 | CS(=O)(=O)NC(=O)c1cc(F)c(COc2ccc(OC(F)(F)F)cc2)cc1F [Example 144, 2,5-difluoro-N-(methylsulfonyl)-4-{[4-(trifluoromethoxy)phenoxy]methyl}benzamide] | 150
19 | CS(=O)(=O)NC(=O)c1cc(F)c(OCc2ccccc2Cl)cc1F [Example 221, 4-[(2-chlorobenzyl)oxy]-2,5-difluoro-N-(methylsulfonyl)benzamide] | 1800
20 | CS(=O)(=O)NC(=O)c1cc(F)c(OCc2cccc(Cl)c2Cl)cc1F [Example 214, 4-[(2,3-dichlorobenzyl)oxy]-2,5-difluoro-N-(methylsulfonyl)benzamide] | 3800
21 | COc1ccccc1COc1cc(F)c(C(=O)NS(C)(=O)=O)cc1F [Example 233, 2,5-difluoro-4-[(2-methoxybenzyl)oxy]-N-(methylsulfonyl)benzamide] | > 1000
22 | CS(=O)(=O)NC(=O)c1cc(F)c(COc2cc(F)c(F)cc2F)cc1F [Example 57, 2,5-Difluoro-N-(methylsulfonyl)-4-[(2,4,5-trifluorophenoxy)methyl]benzamide] | 1100
23 | CS(=O)(=O)NC(=O)c1ccc(COc2ccc(C(F)(F)F)c(Cl)c2)cc1 [Example 65, 4-{[3-Chloro-4-(trifluoromethyl)phenoxy]methyl}-N-(methylsulfonyl)benzamide] | 80
24 | CCOc1ccccc1COc1cc(F)c(C(=O)NS(C)(=O)=O)cc1F [Example 226, 4-[(2-ethoxybenzyl)oxy]-2,5-difluoro-N-(methylsulfonyl)benzamide] | > 1000
25 | CS(=O)(=O)NC(=O)c1cc(F)c(COc2ccc(C#N)c(C#N)c2)cc1F [Example 103, 4-[(3,4-dicyanophenoxy)methyl]-2,5-difluoro-N-(methylsulfonyl)benzamide] | 6100
26 | CN1CCN(c2cccc(OCc3cc(F)c(C(=O)NS(C)(=O)=O)cc3F)c2)CC1 [Example 113, 2,5-difluoro-4-{[3-(4-methylpiperazin-1-yl)phenoxy]methyl}-N-(methylsulfonyl)benzamide] | 11000
27 | CS(=O)(=O)NC(=O)c1ccc(COc2ccc(Cl)c(Cl)c2)c(C#N)c1 [Example 69, 5-Cyano-4-((3,4-dichlorophenoxy)methyl)-N-(methylsulfonyl)benzamide Diethylamine salt] | 240
28 | COc1ccc(COc2cc(F)c(C(=O)NS(C)(=O)=O)cc2Cl)cc1 [Example 71, 5-chloro-2-fluoro-4-[(4-methoxybenzyl)oxy]-N-(methylsulfonyl)benzamide] | 3900
29 | CS(=O)(=O)NC(=O)c1cc(F)c(COc2ccc(-c3cocn3)cc2)cc1F [Example 138, 2,5-difluoro-N-(methylsulfonyl)-4-{[4-(1,3-oxazol-4-yl)phenoxy]methyl}benzamide] | 4200
30 | CS(=O)(=O)NC(=O)c1cc(Cl)c(COc2ccc(OC(F)F)c(Cl)c2)cc1F [Example 61, 5-Chloro-4-{[3-chloro-4-(difluoromethoxy)phenoxy]methyl}-2-fluoro-N-(methylsulfonyl)benzamide] | < 300
31 | CS(=O)(=O)NC(=O)c1cc(F)c(OCc2ccc(Cl)c(C#N)c2)cc1F [Example 67, 4-(4-Chloro-3-cyanobenzyloxy)-2,5-difluoro-N-(methylsulfonyl)benzamide Diethylamine salt] | 9200
32 | COc1cc(F)cc(OCc2cc(F)c(C(=O)NS(C)(=O)=O)cc2F)c1 [Example 128, 2,5-difluoro-4-[(3-fluoro-5-methoxyphenoxy)methyl]-N-(methylsulfonyl)benzamide] | 2900
33 | CS(=O)(=O)NC(=O)c1ccc(OCc2cccc(C#N)c2)c(Cl)c1 [Example 80, 3-chloro-4-[(3-cyanobenzyl)oxy]-N-(methylsulfonyl)benzamide] | > 3000
